Results on 2 compounds are retold here after PMC3865801 (Journal of Medicinal Chemistry, 2013).

Entries after “also recorded” stand apart in the source; their conditions may differ. Where two headings read alike, the source gives them in different places. Where only a bound is given, the exact number is not on record here.

Data set [1] has as its target T1, purified recombinant perforin (Mus musculus, UniProt P10820).
T1 sequence (P10820 21-554): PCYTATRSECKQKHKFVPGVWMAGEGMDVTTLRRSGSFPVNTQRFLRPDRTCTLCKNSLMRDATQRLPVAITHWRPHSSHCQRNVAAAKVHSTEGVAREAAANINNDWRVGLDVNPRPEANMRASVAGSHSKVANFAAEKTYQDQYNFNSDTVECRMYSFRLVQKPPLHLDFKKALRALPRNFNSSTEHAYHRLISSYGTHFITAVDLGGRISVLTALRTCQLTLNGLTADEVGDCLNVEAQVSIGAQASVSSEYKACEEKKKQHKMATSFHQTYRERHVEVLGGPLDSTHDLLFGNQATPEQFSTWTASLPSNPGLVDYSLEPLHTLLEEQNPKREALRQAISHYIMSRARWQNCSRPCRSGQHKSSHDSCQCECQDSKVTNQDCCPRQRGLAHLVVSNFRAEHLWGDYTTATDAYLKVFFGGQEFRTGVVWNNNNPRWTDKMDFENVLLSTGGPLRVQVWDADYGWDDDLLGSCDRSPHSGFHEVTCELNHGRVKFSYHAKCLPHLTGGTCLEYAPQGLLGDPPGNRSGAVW
Nature of the data set: cell-based. Type of data set: cell-based. To be noted: lysis of Jurkat cells by purified recombinant perforin, 51Cr release, 0.1% BSA; average of at least three determinations; read-out: inhibition of Jurkat cell lysis, IC50.
Experimental: The ability of the compounds to inhibit the lysis of nucleated (Jurkat T lymphoma) cells in the presence of 0.1% BSA was measured by release of ^51Cr label. Jurkat target cells were labeled by incubation in medium with 100 μCi ^51Cr for 1 h. The cells were then washed three times to remove unincorporated isotope and resuspended at 1 × 10^5 cells per milliliter in RPMI buffer supplemented with 0.1% BSA. […] Each data point was performed in triplicate, and an IC50 was calculated from the range of concentrations described above.

Data set [2] in a line: Toxicity to KHYG-1 NK cells (Trypan blue exclusion). Type of data set: cell-based, human. The settings on record: human, viability after 24 h; for viability at 4 h, 20 µM: 4 h exposure, Trypan blue, ± SEM. How it is done: The toxicity assay was carried out in exactly the same manner as the killing assay above, but instead of adding the labeled K562 target cells, 100 μL of RPMI 0.1% BSA was added. Cells were incubated for 4 h at 37 °C and then washed ×3 in RPMI + 0.1% BSA. […] Trypan blue was added to each well. Viable (clear) cells and total (clear + blue) cells were counted, and the percentage of viable cells was calculated compared to DMSO treated cell control (% viability).

Data set [3] can be described thus: Plasma pharmacokinetics in male CD-1 mice. Format: in vivo, mouse. To be noted: 5 mg/kg iv; for AUC0–∞ / Cmax / T1/2: plasma. Here is the method:
Blood was collected by cardiac puncture at 5 and 30 min and 1, 2, 4, and 6 h postdose in ice-cold K2-EDTA tubes. Plasma samples were separated by centrifuging at 4000g for 8 min and stored at −80 °C until analysis. Frozen plasma was thawed on wet ice on the day of analysis. […] A Zorbax SB-C18, 50 mm × 2.1 mm 5 μm column was used at a 0.5 mL/min flow rate, and elution was with a gradient of organic phase (A), acetonitrile in water (80:20 v/v) containing 0.01% formic acid and aqueous phase (B), water containing 0.01% formic acid. LC–MS/MS analysis was carried out using multiple reaction monitoring. […] Plasma samples from 5 min, 30 min, and 1 h were diluted with control mouse plasma (1:20 for 5 min, 1:10 for 30 min and 1 h samples) to fit within this range. The resultant concentration vs time data were fitted (using Phoenix WinNonlin 6.2; Pharsight Corporation, St. Louis, MO) to calculate pharmacokinetic parameters including half-life (T1/2), maximum concentration (Cmax), area under the curve (AUC0–∞), volume of distribution (V), and clearance (Cl).

Data set [4] concerns the target T2, recombinant purified mouse perforin (Mus musculus, UniProt P10820).
T2 sequence (P10820 21-554): T1 sequence (P10820 21-554)
Briefly: Inhibitor binding to immobilized perforin by SPR (Biacore T200). To be noted: for Kd: single site specific binding model, read-out: calculated KD; for binding to immobilized perforin by SPR: analyte ≤2.5 μM, 5% DMSO running buffer. An excerpt:
While several series of potent inhibitors have now been identified,[23]−[26] little is known about the mechanism by which the cytolytic activity of perforin action is blocked. In order to find out more about the nature and degree of inhibitor binding, recombinant purified mouse perforin was immobilized on a surface plasmon resonance (SPR) S-series CM5 sensor chip using standard amide coupling methodology.
Binding experiments with surface immobilized wild-type perforin monomers on a S-series CM5 sensor chip (GE Healthcare Life Sciences) were carried out using a Biacore T200 SPR machine (GE Healthcare Life Sciences). Perforin monomer solution (25 μg/mL in 10 mM sodium acetate, pH 5.5) was injected over the sensor chip surface under standard amide coupling conditions to obtain covalent binding of the protein (density = 4257 RU). The initial and running buffers were made from a 10× stock solution of HEPES buffered saline (HBS). 10× HBS (50 mL) was diluted to 500 mL with water and filtered through a 0.22 μm filter (initial buffer). This initial buffer (380 mL) was added to DMSO (20 mL) to prepare the 5% DMSO running buffer. Stock solutions (2.5 mM) of compound were prepared in 100% DMSO. These solutions were diluted in HEPES initial buffer to 5% DMSO (125 μM) and then subsequently diluted to the required concentrations using HEPES running buffer containing 5% DMSO to maintain a constant DMSO concentration. A solvent correction was run before and after the injections to account for differences in DMSO concentrations between buffer and analyte solutions.

Data set [5] in a line: Solubility in SPR running buffer. To be noted: HEPES buffered saline running buffer with 5% DMSO; sodium salts, HEPES running buffer containing 5% DMSO. Type of data set: physicochemical. Here is the method: Binding experiments with surface immobilized wild-type perforin monomers on a S-series CM5 sensor chip (GE Healthcare Life Sciences) were carried out using a Biacore T200 SPR machine (GE Healthcare Life Sciences). […] The initial and running buffers were made from a 10× stock solution of HEPES buffered saline (HBS). 10× HBS (50 mL) was diluted to 500 mL with water and filtered through a 0.22 μm filter (initial buffer). This initial buffer (380 mL) was added to DMSO (20 mL) to prepare the 5% DMSO running buffer. Stock solutions (2.5 mM) of compound were prepared in 100% DMSO. […] A solvent correction was run before and after the injections to account for differences in DMSO concentrations between buffer and analyte solutions.

Data set [6] can be described thus: Aqueous solubility of parent compound and sodium salt.
[7] abbreviates: SI Figure 2: 0, 0.25, 1.25 and 2.5 µM.
Where [8] appears, read: SI Figure 3: further dilution series 0–2.5 µM.

For orientation: IC50 means the concentration that gives 50% inhibition. One may read the viability as the share of living cells, or the viability signal relative to a control. Low values mean more harm to the cells, high ones less harm to the cells. The Cmax is the maximum level reached in the sampled fluid or tissue. A word on the Kd: it is the constant that tells how readily two partners part at equilibrium. What is called solubility is the dissolved amount per volume that the medium holds. Turning to `CC1c2cc(-c3ccc(/C=C4/NC(=S)NC4=O)s3)ccc2C(=O)N1C` (stereo not shown) [compound 135, (E,Z)-2,3-Dimethyl-5-(5-((5-oxo-2-thioxoimidazolidin-4-ylidene)methyl)thiophen-2-yl)isoindolin-1-one], the 50% inhibitory concentration (IC50) in data set [1] turned out to be 3.21 µM. Moreover, in data set [2] (KHYG-1 NK cells), the viability at 4 h, 20 µM stood at 74 ± 8.3%. In data set [3], the “Cl (clearance)” value is reported as 4346 mL h^–1 kg^–1, the “V (volume of distribution)” value came out at 1.478 L/kg, the “AUC0–∞” value came out at 1151 ng·h/mL and the Cmax was 4488 ng/mL. The T1/2 in data set [3] is 1.15 h. Besides, in data set [4] (setting [7]), the “calculated Rmax” value is given as 1.23 ± 0.10 RU and the Kd is 1.79 ± 0.55 µM. In data set [4] (setting [8]), the “calculated Rmax” value is 8.66 ± 2.81 RU and the Kd was 2.39 ± 1.23 µM. In data set [4], the “binding to immobilized perforin by SPR” value is on record as “saturable binding; also recorded: bind reversibly”. Further, the solubility in data set [5] was at most 2.5 µM. The solubility in data set [6] (aqueous medium (not further specified)) was 1.32 µg/mL.

On to `O=C1NC(=S)N/C1=C/c1ccc(-c2ccc3c(c2)CCNC3=O)s1` [compound 167], for which the IC50 in data set [1] is 1.14 µM. This compound also yielded a viability at 4 h, 5 µM in data set [2] (KHYG-1 NK cells, 5 μM) of 82 ± 3.6%. The same compound came in with a viability at 4 h, 20 µM in data set [2] of 38 ± 7.8%. Further, in data set [3], the “Cl (clearance)” value is 5237 mL h^–1 kg^–1, the “V (volume of distribution)” value was 2.75 L/kg, the “AUC0–∞” value worked out at 955 ng·h/mL and the Cmax is 4513 ng/mL. For the same compound, the T1/2 in data set [3] stood at 1.30 h. Moreover, in data set [4], the “binding to immobilized perforin by SPR” value is recorded as “linear concentration response; also recorded: bind reversibly”. In addition, the solubility in data set [5] was at most 2.5 µM. In addition, the solubility in data set [6] came out at 0.53 µg/mL.
